From patent US20060069132A1, “Azolecarboxamide herbicides” (priority 2004, published 2006)
Read-outs that look alike come from different tables or passages of the source.

What was measured:
cocklebur = assay: Test B pre-/postemergence herbicide test; format: in vivo, Xanthium strumarium
Method in brief: (§1)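 Greenhouse pot assay with simultaneous preemergence (treated seed) and postemergence (2–18 cm seedlings) applications of surfactant-containing, non-phytotoxic solvent formulations. Response scored visually 13–15 days later on a 0–100 scale, 100 meaning complete control.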

ducksalad = assay: Test B flooded paddy test; format: in vivo, Heteranthera limosa; details: 1000 g ai/ha, visual rating, scale 0 to 100 (0 no effect, 100 complete control), 13 to 15 days
Method in brief: (§2)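 Greenhouse test; postemergence application to plants at 1–4 leaves (2–18 cm); paddy species at 2 leaves; evaluated visually vs controls at 13–15 days; scale 0–100 (100 = complete control).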

wild oat = assay: Test B postemergence herbicide test; format: in vivo, Avena fatua; details: scale 0 (no effect) to 100 (complete control); for Plant response rating, Oat, Wild: 500 g ai/ha, visual rating after 13 to 15 days
Method in brief: as §2

wheat = assay: Test B postemergence herbicide test; format: in vivo, Triticum aestivum; set-up: key to Wheat plant response rating: 0 = no effect, 100 = complete control; details: scale 0 (no effect) to 100 (complete control); for Plant response rating, Wheat: 500 g ai/ha, visual rating after 13 to 15 days
Method in brief: as §2

velvetleaf = assay: Test B pre-/postemergence herbicide test; format: in vivo, Abutilon theophrasti
Method in brief: (§3)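 Plants compared with untreated controls 13–15 days post-treatment and given a visual 0–100 injury score. Applications: preemergence to seeds; postemergence at 1- to 4-leaf (2–18 cm); paddy species flooded, 2-leaf stage. Vehicle non-phytotoxic, surfactant included.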

pigweed = assay: Test B pre-/postemergence herbicide test; format: in vivo, Amaranthus retroflexus
Method in brief: as §3

rice = assay: Test B flooded paddy test; format: in vivo, Oryza sativa; details: 1000 g ai/ha, visual rating, scale 0 to 100 (0 no effect, 100 complete control), 13 to 15 days
Method in brief: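 Formulated test chemicals went onto postemergence plants measuring 2 to 18 cm, at one to four leaves. For the paddy assay, species had reached two leaves. Scoring took place 13–15 days later by eye, relative to untreated plants, using 0 for no effect up to 100 for full control.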

[1] = tested on: small flower umbrella sedge; assay: Test B flooded paddy test; format: in vivo, Cyperus difformis; details: 1000 g ai/ha, visual rating, scale 0 to 100 (0 no effect, 100 complete control), 13 to 15 days
Method in brief: as §2

large crabgrass = assay: Test B pre-/postemergence herbicide test; format: in vivo, Digitaria sanguinalis
Method in brief: as §3

barnyardgrass [2] = assay: Test B flooded paddy test; format: in vivo, Echinochloa crus-galli; details: 1000 g ai/ha, visual rating, scale 0 to 100 (0 no effect, 100 complete control), 13 to 15 days
Method in brief: as §2

morningglory = assay: Test B pre-/postemergence herbicide test; format: in vivo, Ipomoea coccinea
Method in brief: as §1

barnyardgrass [3] = assay: Test B pre-/postemergence herbicide test; format: in vivo, Echinochloa crus-galli
Method in brief: as §1

giant foxtail = assay: Test B pre-/postemergence herbicide test; format: in vivo, Setaria faberi
Method in brief: as §3

Surinam grass = assay: Test B pre-/postemergence herbicide test; format: in vivo, Urochloa decumbens
Method in brief: as §3

lambsquarters = assay: Test B pre-/postemergence herbicide test; format: in vivo, Chenopodium album
Method in brief: as §3

[4] = Postemergence, 500 g ai/ha, visual rating after 13 to 15 days, scale 0 (no effect) to 100 (complete control)
[5] = Preemergence, 500 g ai/ha, scale 0 to 100
[6] = postemergence, 125 g ai/ha, visual rating, scale 0 (no effect) to 100 (complete control)
[7] = preemergence, 125 g ai/ha, 0 to 100 scale, 0 is no effect, 100 is complete control
[8] = postemergence, 125 g ai/ha, visual rating

Compound: CCn1nc(C(C)(C)C)cc1C(=O)Nc1cc(C(=O)N(C)C)ccc1F [Compound 6, N-[5-[(dimethylamino)carbonyl]-2-fluorophenyl]-3-(1,1-dimethylethyl)-1-ethyl-1H-pyrazole-5-carboxamide]
- pest or weed control at 125 g/ha (cocklebur; Xanthium strumarium, post-emergence, Postemergence, 125 g ai/ha, scale 0 (no effect) to 100 (complete control), read-out: Cocklebur plant response rating): 0%
- pest or weed control at 500 g/ha (cocklebur; Xanthium strumarium, post-emergence, Postemergence, 500 g ai/ha, visual rating after 13 to 15 days, scale 0 (no effect) to 100 (complete control), read-out: Plant response rating, Cocklebur): 80%
- pest or weed control at 500 g/ha (cocklebur; Xanthium strumarium, pre-emergence, Preemergence, 500 g ai/ha, scale 0 to 100, read-out: Cocklebur plant response rating): 100%
- pest or weed control at 1000 g/ha (ducksalad; Heteranthera limosa, 336 h, read-out: Ducksalad plant response rating): 90%
- pest or weed control at 125 g/ha (wild oat; Avena fatua, post-emergence, 336 h, Postemergence, 125 g ai/ha, read-out: Oat, Wild plant response rating): 10%
- Plant response rating, Oat, Wild (wild oat; Postemergence): 70
- Plant response rating, Wheat (wheat; Postemergence): 40
- plant injury at 125 g/ha (wheat; Triticum aestivum, post-emergence, 336 h, Postemergence, 125 g ai/ha, read-out: Wheat plant response rating): 0%
- pest or weed control at 125 g/ha (velvetleaf; Abutilon theophrasti, post-emergence, 336 h, Postemergence, 125 g ai/ha, scale 0 (no effect) to 100 (complete control), read-out: Velvetleaf plant response rating): 0%
- pest or weed control at 500 g/ha (velvetleaf; Abutilon theophrasti, post-emergence, 336 h, Postemergence, 500 g ai/ha, visual rating after 13 to 15 days, scale 0 (no effect) to 100 (complete control), read-out: Plant response rating, Velvetleaf): 60%
- pest or weed control at 500 g/ha (velvetleaf; Abutilon theophrasti, pre-emergence, 336 h, Preemergence, 500 g ai/ha, scale 0 to 100, read-out: Velvetleaf plant response rating): 100%
- pest or weed control at 125 g/ha (pigweed; Amaranthus retroflexus, post-emergence, 336 h, Postemergence, 125 g ai/ha, scale 0 (no effect) to 100 (complete control), read-out: Pigweed plant response rating): 20%
- pest or weed control at 500 g/ha (pigweed; Amaranthus retroflexus, post-emergence, 336 h, Postemergence, 500 g ai/ha, visual rating after 13 to 15 days, scale 0 (no effect) to 100 (complete control), read-out: Plant response rating, Pigweed): 70%
- pest or weed control at 500 g/ha (pigweed; Amaranthus retroflexus, pre-emergence, 336 h, Preemergence, 500 g ai/ha, scale 0 to 100, read-out: Pigweed plant response rating): 100%
- plant injury at 1000 g/ha (rice; Oryza sativa, 336 h, read-out: Rice plant response rating): 80%
- pest or weed control at 1000 g/ha ([1]; Cyperus difformis, 336 h, read-out: Sedge, Umbrella plant response rating): 90%
- pest or weed control at 125 g/ha (large crabgrass; Digitaria sanguinalis, post-emergence, Postemergence, 125 g ai/ha, scale 0 (no effect) to 100 (complete control), read-out: Crabgrass, Large plant response rating): 20%
- pest or weed control at 500 g/ha (large crabgrass; Digitaria sanguinalis, post-emergence, Postemergence, 500 g ai/ha, visual rating after 13 to 15 days, scale 0 (no effect) to 100 (complete control), read-out: Plant response rating, Crabgrass, Large): 30%
- pest or weed control at 500 g/ha (large crabgrass; Digitaria sanguinalis, pre-emergence, Preemergence, 500 g ai/ha, scale 0 to 100, read-out: Crabgrass, Large plant response rating): 100%
- pest or weed control at 1000 g/ha (barnyardgrass [2]; Echinochloa crus-galli, 336 h, read-out: Barnyardgrass plant response rating): 90%
- pest or weed control at 125 g/ha (morningglory; Ipomoea, post-emergence, 336 h, Postemergence, 125 g ai/ha, scale 0 (no effect) to 100 (complete control), read-out: Morningglory plant response rating): 0%
- pest or weed control at 500 g/ha (morningglory; Ipomoea, post-emergence, 336 h, Postemergence, 500 g ai/ha, visual rating after 13 to 15 days, scale 0 (no effect) to 100 (complete control), read-out: Plant response rating, Morningglory): 0%
- pest or weed control at 125 g/ha (barnyardgrass [3]; Echinochloa crus-galli, post-emergence, Postemergence, 125 g ai/ha, scale 0 (no effect) to 100 (complete control), read-out: Barnyardgrass plant response rating): 0%
- pest or weed control at 500 g/ha (barnyardgrass [3]; Echinochloa crus-galli, post-emergence, Postemergence, 500 g ai/ha, visual rating after 13 to 15 days, scale 0 (no effect) to 100 (complete control), read-out: Plant response rating, Barnyardgrass): 80%
- pest or weed control at 500 g/ha (barnyardgrass [3]; Echinochloa crus-galli, pre-emergence, Preemergence, 500 g ai/ha, scale 0 to 100, read-out: Barnyardgrass plant response rating): 100%
- pest or weed control at 125 g/ha (giant foxtail; Setaria faberi, post-emergence, 336 h, Postemergence, 125 g ai/ha, scale 0 (no effect) to 100 (complete control), read-out: Foxtail, Giant plant response rating): 10%
- pest or weed control at 500 g/ha (giant foxtail; Setaria faberi, post-emergence, 336 h, Postemergence, 500 g ai/ha, visual rating after 13 to 15 days, scale 0 (no effect) to 100 (complete control), read-out: Plant response rating, Foxtail, Giant): 20%
- pest or weed control at 500 g/ha (giant foxtail; Setaria faberi, pre-emergence, 336 h, Preemergence, 500 g ai/ha, scale 0 to 100, read-out: Foxtail, Giant plant response rating): 100%
- pest or weed control at 125 g/ha (Surinam grass; Urochloa decumbens, post-emergence, Postemergence, 125 g ai/ha, scale 0 (no effect) to 100 (complete control), read-out: Surinam Grass plant response rating): 10%
- pest or weed control at 500 g/ha (Surinam grass; Urochloa decumbens, post-emergence, Postemergence, 500 g ai/ha, visual rating after 13 to 15 days, scale 0 (no effect) to 100 (complete control), read-out: Plant response rating, Surinam Grass): 60%
- pest or weed control at 500 g/ha (Surinam grass; Urochloa decumbens, pre-emergence, Preemergence, 500 g ai/ha, scale 0 to 100, read-out: Surinam Grass plant response rating): 100%
- pest or weed control at 125 g/ha (lambsquarters; Chenopodium album, post-emergence, 336 h, Postemergence, 125 g ai/ha, scale 0 (no effect) to 100 (complete control), read-out: Lambsquarters plant response rating): 30%
- pest or weed control at 500 g/ha (lambsquarters; Chenopodium album, post-emergence, 336 h, Postemergence, 500 g ai/ha, visual rating after 13 to 15 days, scale 0 (no effect) to 100 (complete control), read-out: Plant response rating, Lambsquarters): 100%
- pest or weed control at 500 g/ha (lambsquarters; Chenopodium album, pre-emergence, 336 h, Preemergence, 500 g ai/ha, scale 0 to 100, read-out: Lambsquarters plant response rating): 100%

Compound: CCCn1nc(C(C)(C)C)cc1C(=O)Nc1cccc(C(=O)NCC)c1 [Compound 57]
- Plant response rating, Cocklebur (cocklebur; [4]): 60
- Cocklebur plant response rating (cocklebur; [5]): 10
- Cocklebur plant response rating (cocklebur; [6]): 30
- Plant response rating, Cocklebur (cocklebur; [7]): 0
- Ducksalad plant response rating (ducksalad): 50
- Plant response rating, Oat, Wild (wild oat; Postemergence): 30
- Oat, Wild plant response rating (wild oat; [8]): 30
- Plant response rating, Wheat (wheat; Postemergence): 10
- Wheat plant response rating (wheat; [8]): 10
- Plant response rating, Velvetleaf (velvetleaf; [4]): 30
- Velvetleaf plant response rating (velvetleaf; [5]): 0
- Velvetleaf plant response rating (velvetleaf; [6]): 20
- Plant response rating, Velvetleaf (velvetleaf; [7]): 0
- Plant response rating, Pigweed (pigweed; [4]): 80
- Pigweed plant response rating (pigweed; [5]): 100
- Pigweed plant response rating (pigweed; [6]): 70
- Plant response rating, Pigweed (pigweed; [7]): 90
- Rice plant response rating (rice): 60
- Sedge, Umbrella plant response rating [1]: 60
- Plant response rating, Crabgrass, Large (large crabgrass; [4]): 20
- Crabgrass, Large plant response rating (large crabgrass; [5]): 100
- Crabgrass, Large plant response rating (large crabgrass; [6]): 10
- Plant response rating, Crabgrass, Large (large crabgrass; [7]): 40
- Barnyardgrass plant response rating (barnyardgrass [2]): 60
- Plant response rating, Morningglory (morningglory; [4]): 10
- Morningglory plant response rating (morningglory; [5]): 0
- Morningglory plant response rating (morningglory; [6]): 10
- Plant response rating, Morningglory (morningglory; [7]): 0
- Plant response rating, Barnyardgrass (barnyardgrass [3]; [4]): 20
- Barnyardgrass plant response rating (barnyardgrass [3]; [5]): 70
- Barnyardgrass plant response rating (barnyardgrass [3]; [6]): 10
- Plant response rating, Barnyardgrass (barnyardgrass [3]; [7]): 50
- Plant response rating, Foxtail, Giant (giant foxtail; [4]): 30
- Foxtail, Giant plant response rating (giant foxtail; [5]): 100
- Foxtail, Giant plant response rating (giant foxtail; [6]): 20
- Plant response rating, Foxtail, Giant (giant foxtail; [7]): 20
- Plant response rating, Surinam Grass (Surinam grass; [4]): 20
- Surinam Grass plant response rating (Surinam grass; [5]): 40
- Surinam Grass plant response rating (Surinam grass; [6]): 10
- Plant response rating, Surinam Grass (Surinam grass; [7]): 20
- Plant response rating, Lambsquarters (lambsquarters; [4]): 90
- Lambsquarters plant response rating (lambsquarters; [5]): 100
- Lambsquarters plant response rating (lambsquarters; [6]): 70
- Plant response rating, Lambsquarters (lambsquarters; [7]): 100
